Reference: ChEMBL document CHEMBL4325850 (Bioorg Med Chem Lett, 2018)
Active and inactive are the calls of the source. The rule behind the calls is not given here.

Columns and labels:
Dipeptidyl peptidase 9 = Dipeptidyl peptidase 9 (Homo sapiens, UniProt Q86TI2); assay: Inhibition of human recombinant DPP-9 using H-Gly-Pro-AMC as substrate after 10 mins by fluorescence assay
Dipeptidyl peptidase 8 = Dipeptidyl peptidase 8 (Homo sapiens, UniProt Q6V1X1); assay: Inhibition of human recombinant DPP-8 using H-Gly-Pro-AMC as substrate after 10 mins by fluorescence assay
[1] = Inhibition of ADP-induced platelet aggregation in human platelet-rich plasma at 0.1 mM preincubated for 5 mins followed by ADP-stimulation and measured within 5 mins by Born's turbidimetric analysis relative to control; details: read-out: INH
[2] = Induction of NO production in pH 7.4 PBS incubated for 1 to 14 hrs under dark conditions and measured every 1 hr for 2 hrs and then every 2 hrs for remaining time by Griess assay; assay type: functional

Dipeptidyl peptidase 9, sequence (Q86TI2 whole entry): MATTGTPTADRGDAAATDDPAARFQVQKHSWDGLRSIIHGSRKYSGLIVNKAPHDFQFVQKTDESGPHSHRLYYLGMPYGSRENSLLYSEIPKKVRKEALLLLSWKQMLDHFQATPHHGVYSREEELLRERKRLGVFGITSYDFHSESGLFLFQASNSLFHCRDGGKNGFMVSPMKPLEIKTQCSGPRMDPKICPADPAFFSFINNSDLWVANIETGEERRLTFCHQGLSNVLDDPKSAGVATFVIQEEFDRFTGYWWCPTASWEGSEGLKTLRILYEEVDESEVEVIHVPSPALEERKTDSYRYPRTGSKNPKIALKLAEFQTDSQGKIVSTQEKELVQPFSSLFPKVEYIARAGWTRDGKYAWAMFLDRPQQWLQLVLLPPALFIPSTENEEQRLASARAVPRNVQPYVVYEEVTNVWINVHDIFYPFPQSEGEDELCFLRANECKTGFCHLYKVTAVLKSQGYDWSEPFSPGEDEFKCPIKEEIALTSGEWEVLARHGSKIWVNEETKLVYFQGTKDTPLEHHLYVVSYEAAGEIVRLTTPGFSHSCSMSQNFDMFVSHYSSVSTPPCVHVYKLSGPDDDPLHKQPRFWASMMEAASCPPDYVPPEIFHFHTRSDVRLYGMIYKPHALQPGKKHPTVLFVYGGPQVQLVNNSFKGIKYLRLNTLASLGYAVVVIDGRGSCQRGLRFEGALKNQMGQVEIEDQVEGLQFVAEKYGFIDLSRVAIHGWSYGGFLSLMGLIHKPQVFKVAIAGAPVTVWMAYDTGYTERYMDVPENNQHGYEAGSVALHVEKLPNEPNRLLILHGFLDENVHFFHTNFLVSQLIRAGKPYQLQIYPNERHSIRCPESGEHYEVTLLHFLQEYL
Dipeptidyl peptidase 8, sequence (Q6V1X1 whole entry): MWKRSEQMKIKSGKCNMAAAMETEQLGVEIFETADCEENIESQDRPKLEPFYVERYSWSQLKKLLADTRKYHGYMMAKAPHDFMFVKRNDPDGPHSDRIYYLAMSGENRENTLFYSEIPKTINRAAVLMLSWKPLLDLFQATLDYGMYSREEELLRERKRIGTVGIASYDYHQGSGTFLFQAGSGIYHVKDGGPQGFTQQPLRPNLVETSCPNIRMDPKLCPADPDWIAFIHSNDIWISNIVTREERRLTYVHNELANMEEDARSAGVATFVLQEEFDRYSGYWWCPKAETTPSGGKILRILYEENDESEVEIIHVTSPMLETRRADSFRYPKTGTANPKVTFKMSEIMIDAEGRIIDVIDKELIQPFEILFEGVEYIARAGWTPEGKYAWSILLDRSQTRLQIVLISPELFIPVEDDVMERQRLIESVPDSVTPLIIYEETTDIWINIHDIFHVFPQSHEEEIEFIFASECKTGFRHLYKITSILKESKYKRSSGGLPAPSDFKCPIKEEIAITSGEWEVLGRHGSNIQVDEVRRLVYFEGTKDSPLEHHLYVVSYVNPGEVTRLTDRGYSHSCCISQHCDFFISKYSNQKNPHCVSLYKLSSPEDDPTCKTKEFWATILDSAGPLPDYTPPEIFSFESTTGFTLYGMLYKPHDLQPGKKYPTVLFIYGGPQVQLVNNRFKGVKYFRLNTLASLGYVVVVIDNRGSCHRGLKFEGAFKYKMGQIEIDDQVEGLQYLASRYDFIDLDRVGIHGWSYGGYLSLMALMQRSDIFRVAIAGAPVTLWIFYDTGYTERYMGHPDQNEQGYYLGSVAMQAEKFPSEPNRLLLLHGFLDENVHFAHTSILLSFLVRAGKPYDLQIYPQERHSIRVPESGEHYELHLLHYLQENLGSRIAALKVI

Structure (SMILES) | IC50 (Dipeptidyl peptidase 9) | IC50 (Dipeptidyl peptidase 8) | inhibition at 100 µM [1] | Activity [2]
O=C(CCCCCO[N+](=O)[O-])N[C@@H](CC(=O)N1CCn2c(nnc2C(F)(F)F)C1)Cc1cc(F)c(F)cc1F | > 100 µM | > 100 µM | 40.2% | Active
O=C(CO)N[C@@H](CC(=O)N1CCn2c(nnc2C(F)(F)F)C1)Cc1cc(F)c(F)cc1F | > 100 µM | > 100 µM | 3.22% | 
O=C(CCCCO)N[C@@H](CC(=O)N1CCn2c(nnc2C(F)(F)F)C1)Cc1cc(F)c(F)cc1F | > 100 µM | > 100 µM | 2.02% | 
N[C@@H](CC(=O)N1CCn2c(nnc2C(F)(F)F)C1)Cc1cc(F)c(F)cc1F [SITAGLIPTIN] |  |  | 4.24% | 
O=C(CO[N+](=O)[O-])N[C@@H](CC(=O)N1CCn2c(nnc2C(F)(F)F)C1)Cc1cc(F)c(F)cc1F | > 100 µM | > 100 µM | 22.4% | Active
O=C(CCCCO[N+](=O)[O-])N[C@@H](CC(=O)N1CCn2c(nnc2C(F)(F)F)C1)Cc1cc(F)c(F)cc1F | > 100 µM | > 100 µM | 32.1% | Active
O=C(CCCCCO)N[C@@H](CC(=O)N1CCn2c(nnc2C(F)(F)F)C1)Cc1cc(F)c(F)cc1F | > 100 µM | > 100 µM | 3.63% | 
CC(=O)Oc1ccccc1C(=O)O [ASPIRIN] |  |  | 26% | 
O=C(CCCO)N[C@@H](CC(=O)N1CCn2c(nnc2C(F)(F)F)C1)Cc1cc(F)c(F)cc1F | > 100 µM | > 100 µM | 3.41% | 
O=C(CCCO[N+](=O)[O-])N[C@@H](CC(=O)N1CCn2c(nnc2C(F)(F)F)C1)Cc1cc(F)c(F)cc1F | > 100 µM | > 100 µM | 27.6% | Active
